In paper PMC7243119, “Improved Surface Display of Human Hyal1 and Identification of Testosterone Propionate and Chicoric Acid as New Inhibitors” (Pharmaceuticals, 2020) one finds IC50 data, which are given here for two compounds.

The target in experiment [1] is T1, Hyal1 (Homo sapiens, UniProt Q12794).
T1 sequence (Q12794 22-435): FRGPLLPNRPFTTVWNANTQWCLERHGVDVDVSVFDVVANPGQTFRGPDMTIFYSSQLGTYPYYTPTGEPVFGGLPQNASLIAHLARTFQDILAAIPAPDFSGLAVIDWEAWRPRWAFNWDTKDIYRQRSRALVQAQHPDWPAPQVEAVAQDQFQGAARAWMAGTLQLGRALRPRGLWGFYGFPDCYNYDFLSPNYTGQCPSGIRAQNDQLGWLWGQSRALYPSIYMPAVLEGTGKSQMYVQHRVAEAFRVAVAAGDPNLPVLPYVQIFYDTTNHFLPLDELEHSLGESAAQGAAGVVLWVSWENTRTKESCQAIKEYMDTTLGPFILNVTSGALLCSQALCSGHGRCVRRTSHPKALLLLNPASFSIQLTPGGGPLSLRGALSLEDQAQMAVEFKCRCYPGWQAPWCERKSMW
In words: Stains-all HA degradation assay with surface-displayed Hyal1 on E. coli cells, pH […] (incomplete curve; assay impaired beyond […]). It is filed as cell-based.

The target of experiment [2] is T1, Hyal1. Kind of experiment: Stains-all HA degradation assay with surface-displayed Hyal1 on E. coli cells, pH […]. It is filed as cell-based.

What is called IC50 is the concentration needed to halve the response being measured. Lower therefore signals greater potency. `O=C(/C=C/c1ccc(O)c(O)c1)O[C@@H](C(=O)O)[C@@H](OC(=O)/C=C/c1ccc(O)c(O)c1)C(=O)O` [chicoric acid] displayed an IC50 in experiment [1] of 171 µM.
For `CCC(=O)O[C@H]1CC[C@H]2[C@@H]3CCC4=CC(=O)CC[C@]4(C)[C@H]3CC[C@]12C` [testosterone propionate], in experiment [2], the IC50 is 124 ± 1.1 µM.
